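All cell lines were grown in 96-well plates and treated with compound for 48 hours. TGI marks complete inhibition of growth.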
Tests used:
Test in all cases: NCI tumour cell line growth inhibition, 48 h
OVCAR-5 ovarian = test system: OVCAR-5 ovarian
NCI-H226 lung = test system: NCI-H226 lung
SK-MEL-28 melanoma = test system: SK-MEL-28 melanoma
CCRF-CEM leukemia = test system: CCRF-CEM leukemia
SN12K1 renal = test system: SN12K1 renal
A549 NSCLC = test system: A549 NSCLC
DMS 273 small cell lung = test system: DMS 273 small cell lung
NCI-H23 lung = test system: NCI-H23 lung
NCI-H522 lung = test system: NCI-H522 lung
COLO 205 colon = test system: COLO 205 colon
SF-539 CNS = test system: SF-539 CNS
MOLT-4 leukemia = test system: MOLT-4 leukemia
NCI-H460 lung = test system: NCI-H460 lung
OVCAR-4 ovarian = test system: OVCAR-4 ovarian
OVCAR-8 ovarian = test system: OVCAR-8 ovarian
HT29 colon = test system: HT29 colon
DLD-1 colon = test system: DLD-1 colon
HOP-92 NSCLC = test system: HOP-92 NSCLC
UO-31 renal = test system: UO-31 renal
IGROV1 ovarian = test system: IGROV1 ovarian
MALME-3M melanoma = test system: MALME-3M melanoma
P388/ADR leukemia = test system: P388/ADR leukemia
RXF 393 renal = test system: RXF 393 renal
MCF7 breast = test system: MCF7 breast
HCT-15 colon = test system: HCT-15 colon
SNB-19 CNS = test system: SNB-19 CNS
SF-268 CNS = test system: SF-268 CNS
OVCAR-3 ovarian = test system: OVCAR-3 ovarian
RPMI-8226 leukemia = test system: RPMI-8226 leukemia
SK-OV-3 ovarian = test system: SK-OV-3 ovarian
SW-620 colon = test system: SW-620 colon
HL-60(TB) leukemia = test system: HL-60(TB) leukemia
HOP-18 NSCLC = test system: HOP-18 NSCLC
KM20L2 colon = test system: KM20L2 colon
SN12C renal = test system: SN12C renal
EKVX NSCLC = test system: EKVX NSCLC
XF 498 CNS = test system: XF 498 CNS
HOP-62 NSCLC = test system: HOP-62 NSCLC
SK-MEL-5 melanoma = test system: SK-MEL-5 melanoma
SF-295 CNS = test system: SF-295 CNS
NCI/ADR-RES ovarian = test system: NCI/ADR-RES ovarian
DMS 114 small cell lung = test system: DMS 114 small cell lung
UACC-62 melanoma = test system: UACC-62 melanoma
LOX IMVI melanoma = test system: LOX IMVI melanoma
M19-MEL melanoma = test system: M19-MEL melanoma
UACC-257 melanoma = test system: UACC-257 melanoma
HCC-2998 colon = test system: HCC-2998 colon
CAKI-1 renal = test system: CAKI-1 renal
SK-MEL-2 melanoma = test system: SK-MEL-2 melanoma
K-562 leukemia = test system: K-562 leukemia
SNB-75 CNS = test system: SNB-75 CNS
P388 leukemia = test system: P388 leukemia
HCT-116 colon = test system: HCT-116 colon
A498 renal = test system: A498 renal
U251 CNS = test system: U251 CNS
KM12 colon = test system: KM12 colon
DU-145 prostate = test system: DU-145 prostate
BT-549 breast = test system: BT-549 breast
TK-10 renal = test system: TK-10 renal
RXF-631 renal = test system: RXF-631 renal
MDA-MB-435 = test system: MDA-MB-435
T-47D breast = test system: T-47D breast
MDA-MB-231 breast = test system: MDA-MB-231 breast
786-0 renal = test system: 786-0 renal
MDA-N = test system: MDA-N
SR leukemia = test system: SR leukemia
PC-3 prostate = test system: PC-3 prostate
LXFL 529 NSCLC = test system: LXFL 529 NSCLC
M14 melanoma = test system: M14 melanoma
ACHN renal = test system: ACHN renal
SNB-78 CNS = test system: SNB-78 CNS
HS 578T breast = test system: HS 578T breast

## C[C@H](N)C(=O)N[C@@H]1[C@H]2C(=C(O)C[C@@H](O)[C@@H]2O)C(=O)O[C@@H]1C
OVCAR-5 ovarian
  TGI: > 100 µM
NCI-H226 lung
  TGI: > 100 µM
SK-MEL-28 melanoma
  TGI: > 100 µM
CCRF-CEM leukemia
  TGI: > 100 µM
SN12K1 renal
  TGI: > 100 µM
A549 NSCLC
  TGI: > 100 µM
DMS 273 small cell lung
  TGI: > 100 µM
NCI-H23 lung
  TGI: > 100 µM
NCI-H522 lung
  TGI: > 100 µM
COLO 205 colon
  TGI: > 100 µM
SF-539 CNS
  TGI: > 100 µM
MOLT-4 leukemia
  TGI: > 100 µM
NCI-H460 lung
  TGI: > 100 µM
OVCAR-4 ovarian
  TGI: > 100 µM
OVCAR-8 ovarian
  TGI: > 100 µM
HT29 colon
  TGI: > 100 µM
DLD-1 colon
  TGI: > 100 µM
HOP-92 NSCLC
  TGI: > 100 µM
UO-31 renal
  TGI: > 100 µM
IGROV1 ovarian
  TGI: > 100 µM
MALME-3M melanoma
  TGI: > 100 µM
P388/ADR leukemia
  TGI: > 100 µM
RXF 393 renal
  TGI: > 100 µM
MCF7 breast
  TGI: > 100 µM
HCT-15 colon
  TGI: > 100 µM
SNB-19 CNS
  TGI: > 100 µM
SF-268 CNS
  TGI: > 100 µM
OVCAR-3 ovarian
  TGI: > 100 µM
RPMI-8226 leukemia
  TGI: > 100 µM
SK-OV-3 ovarian
  TGI: > 100 µM
SW-620 colon
  TGI: > 100 µM
HL-60(TB) leukemia
  TGI: > 100 µM
HOP-18 NSCLC
  TGI: > 100 µM
KM20L2 colon
  TGI: > 100 µM
SN12C renal
  TGI: > 100 µM
EKVX NSCLC
  TGI: > 100 µM
XF 498 CNS
  TGI: > 100 µM
HOP-62 NSCLC
  TGI: > 100 µM
SK-MEL-5 melanoma
  TGI: > 100 µM
SF-295 CNS
  TGI: > 100 µM
NCI/ADR-RES ovarian
  TGI: > 100 µM
DMS 114 small cell lung
  TGI: > 100 µM
UACC-62 melanoma
  TGI: > 100 µM
LOX IMVI melanoma
  TGI: > 100 µM
M19-MEL melanoma
  TGI: > 100 µM
UACC-257 melanoma
  TGI: > 100 µM
HCC-2998 colon
  TGI: > 100 µM
CAKI-1 renal
  TGI: > 100 µM
SK-MEL-2 melanoma
  TGI: > 100 µM
K-562 leukemia
  TGI: > 100 µM
SNB-75 CNS
  TGI: > 100 µM
P388 leukemia
  TGI: > 100 µM
HCT-116 colon
  TGI: > 100 µM
A498 renal
  TGI: > 100 µM
U251 CNS
  TGI: > 100 µM
KM12 colon
  TGI: > 100 µM

## CC(=O)OC1CC[C@@]2(C)C(CC[C@]3(C)C2CC=C2[C@@H]4CC(C)(C)CCC4(C)CCC23C)[C@@]1(C)C(=O)O (some centres undefined)
OVCAR-5 ovarian
  TGI: 47.5 µM
NCI-H226 lung
  TGI: 50.2 µM
SK-MEL-28 melanoma
  TGI: 46.5 µM
CCRF-CEM leukemia
  TGI: > 87.9 µM
A549 NSCLC
  TGI: 33.9 µM
DMS 273 small cell lung
  TGI: 55.5 µM
NCI-H23 lung
  TGI: 43.9 µM
DU-145 prostate
  TGI: 46 µM
NCI-H522 lung
  TGI: 22.6 µM
COLO 205 colon
  TGI: 48.5 µM
SF-539 CNS
  TGI: 50.7 µM
BT-549 breast
  TGI: 50.1 µM
MOLT-4 leukemia
  TGI: 47.3 µM
TK-10 renal
  TGI: 51.8 µM
NCI-H460 lung
  TGI: 37 µM
OVCAR-4 ovarian
  TGI: 40.2 µM
OVCAR-8 ovarian
  TGI: 36.9 µM
RXF-631 renal
  TGI: 44.7 µM
HT29 colon
  TGI: 38.9 µM
DLD-1 colon
  TGI: 29.3 µM
HOP-92 NSCLC
  TGI: 49.9 µM
MDA-MB-435
  TGI: 44.1 µM
UO-31 renal
  TGI: 35.9 µM
IGROV1 ovarian
  TGI: 38.6 µM
T-47D breast
  TGI: 44.9 µM
MALME-3M melanoma
  TGI: 47.1 µM
RXF 393 renal
  TGI: 36.9 µM
MCF7 breast
  TGI: 40.1 µM
HCT-15 colon
  TGI: 28.5 µM
SNB-19 CNS
  TGI: 47.3 µM
SF-268 CNS
  TGI: 46.7 µM
OVCAR-3 ovarian
  TGI: 37.7 µM
RPMI-8226 leukemia
  TGI: 58.1 µM
SK-OV-3 ovarian
  TGI: 31.2 µM
MDA-MB-231 breast
  TGI: 44.2 µM
786-0 renal
  TGI: 45.9 µM
SW-620 colon
  TGI: 40.8 µM
MDA-N
  TGI: 64.8 µM
HL-60(TB) leukemia
  TGI: 83.5 µM
SR leukemia
  TGI: > 78.3 µM
HOP-18 NSCLC
  TGI: 43.7 µM
KM20L2 colon
  TGI: 36.7 µM
SN12C renal
  TGI: 41.3 µM
PC-3 prostate
  TGI: 23.1 µM
EKVX NSCLC
  TGI: 39.5 µM
XF 498 CNS
  TGI: 50.9 µM
HOP-62 NSCLC
  TGI: 42 µM
SK-MEL-5 melanoma
  TGI: 47.9 µM
SF-295 CNS
  TGI: 51.3 µM
LXFL 529 NSCLC
  TGI: 32.9 µM
DMS 114 small cell lung
  TGI: 40.2 µM
UACC-62 melanoma
  TGI: 36.6 µM
LOX IMVI melanoma
  TGI: 50.1 µM
M19-MEL melanoma
  TGI: 54 µM
UACC-257 melanoma
  TGI: 43.3 µM
HCC-2998 colon
  TGI: 35.8 µM
CAKI-1 renal
  TGI: 38.5 µM
M14 melanoma
  TGI: 46.5 µM
SK-MEL-2 melanoma
  TGI: 38.6 µM
K-562 leukemia
  TGI: 61.9 µM
SNB-75 CNS
  TGI: 48.9 µM
ACHN renal
  TGI: 30.7 µM
HCT-116 colon
  TGI: 46.9 µM
A498 renal
  TGI: 39.3 µM
SNB-78 CNS
  TGI: 48.8 µM
HS 578T breast
  TGI: 45.3 µM
U251 CNS
  TGI: 32 µM
KM12 colon
  TGI: 52.3 µM

Reference: PubChem BioAssay (NCI)
